Columns and labels:
[1] = release of carvacrol in air by weight loss; format: physicochemical; conditions: at 100 days
Description: The amount of carvacrol, i.e. the hydrophobic material in the composition, released in air was calculated by weight loss and is illustrated in FIG. 8C. The amount of carvacrol released in water was monitored by UV-vis scanning spectrophotometer (Shimadzu 1700), wherein

[2] = cited from earlier work

Compound: Cc1ccc(C(C)C)cc1O [carvacrol]
- reduction of the original mass [1]: approximately 40%
- saturation concentration in water [2]: about 3 mM
